What all share (assay): inhibition of tumour cell growth, NCI panel, 48 h
Experiment [1] relates to HCT-15 colon.
Experiment [2] deals with IGROV1 ovarian.
The test system of experiment [3] is SR leukemia.
For experiment [4], the system named is LOX IMVI melanoma.
Experiment [5] has as its system MALME-3M melanoma.
Experiment [6] relates to ACHN renal.
The test system of experiment [7] is MOLT-4 leukemia.
For experiment [8], the system named is COLO 205 colon.
The subject of experiment [9] is SF-295 CNS.
In experiment [10] the test system is MDA-MB-435.

SMILES strings stand for the structures.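 1) Cells in 96-well plates. 2) Compound, 48 h, 5 concentrations. 3) Linear interpolation between surrounding doses. 4) Unreached endpoint = highest concentration. Abbreviation: GI50, concentration required for 50% inhibition of growth. Definition used: TGI = concentration required for complete inhibition of growth.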

On to `COC(=O)c1cc2c(cc1Cl)SC(N(N(C)C)S(=O)(=O)c1ccc(Cl)cc1)=NS2(=O)=O`, for which the GI50 in [1] is 14.1 µM; in experiment [2] it was 22.5 µM; in [3], 19.8 µM; in [4] it was 15 µM; in experiment [5], 13.8 µM; in [6] it was 17.8 µM. The GI50 in experiment [7] is 11.8 µM; in experiment [8], 13.4 µM; in experiment [9] it was 18 µM; in [10], 16.3 µM. Further, the TGI was 27.1 µM in experiment [1]; 73.6 µM in experiment [2]; 40.9 µM in experiment [3]; 28.3 µM in experiment [4]; 40 µM in [5]; 38.5 µM in [6]. Moreover, the TGI in experiment [7] was determined as 27.5 µM; in experiment [8], 29.8 µM; in experiment [9], 51.2 µM; in experiment [10] it was 33.3 µM.
Turning to `CCOC(=O)c1cnc2c(cnn2CC)c1NN=C(C)C`, the GI50 in [1] was 32 µM; in experiment [2], 38.3 µM; in experiment [3], 33.6 µM; in experiment [4], 35.3 µM; in experiment [5], > 100 µM; in experiment [6], 24 µM. For the same compound, the GI50 in [7] is 64.7 µM; in [8], 58.7 µM; in experiment [9] it was 27.6 µM; in [10], 78.2 µM. Besides, the TGI in experiment [1], in experiment [2], in [3], in experiment [4], in [5] and in experiment [6] was > 100 µM in each case. The TGI in experiment [7], in experiment [8], in experiment [9] and in [10] was > 100 µM each time.
With `C#CC#CC#CC#CC#CC#CC#CC#CCC1OC[C@H](COC(=O)O[C@@H](C(=O)O[C@H]2C[C@@]3(O)[C@@H](OC(=O)c4ccccc4)[C@@H]4[C@]5(OC(C)=O)CO[C@@H]5C[C@H](O)[C@@]4(C)C(=O)[C@H](OC(C)=O)C(=C2C)C3(C)C)[C@@H](NC(=O)c2ccccc2)c2ccccc2)O1` (stereo not given in full), the GI50 is 11.7 µM in experiment [1]; 0.424 µM in experiment [2]; 0.182 µM in experiment [3]; 0.199 µM in experiment [4]; 1.16 µM in experiment [5]; > 33.3 µM in [6]. The GI50 was 0.443 µM in [7], 0.202 µM in experiment [8], 1.01 µM in experiment [9] and 0.044 µM in experiment [10]. For the same compound, the TGI in experiment [1], in [2], in experiment [3], in [4], in experiment [5] and in experiment [6] was > 33.3 µM in each case. Besides, the TGI in experiment [7] is > 33.3 µM; in [8], > 33.3 µM; in [9], > 27.5 µM; in experiment [10], 0.109 µM.
For the compound `Nc1c(O)c(S(=O)(=O)O)c(O)c2c1C(=O)c1ccccc1C2=O`, the GI50 was 2.64 µM in experiment [1]; 3.29 µM in [2]; 2.03 µM in [3]; 3.08 µM in experiment [4]; 2.61 µM in experiment [5]; 2.43 µM in [6]. Moreover, the GI50 was 1.9 µM in experiment [7], 1.61 µM in experiment [8], 2.32 µM in experiment [9] and 3.33 µM in experiment [10]. Further, the TGI in experiment [1] is 11.2 µM; in experiment [2], > 100 µM; in experiment [3], 7.17 µM; in [4], 12.3 µM; in [5], 8.36 µM; in [6], 6.8 µM. In addition, the TGI was 4.91 µM in experiment [7], 3.01 µM in experiment [8], 7.27 µM in [9] and > 100 µM in experiment [10].
Regarding `O=C1C=C(Nc2nc(C(=O)O)cc(=O)[nH]2)c2ccccc2C1=O`, the TGI in experiment [1], in experiment [2], in experiment [3], in [4], in experiment [5] and in experiment [6] was > 100 µM throughout. Moreover, the TGI in experiment [7], in experiment [8], in experiment [9] and in experiment [10] was > 100 µM in each case.
On to `CC12CCC(O)CC1CCC1C2CCC2(C)C(C3=CC(=O)OC3)CCC12` (stereo not given), for which the GI50 in experiment [1] was > 100 µM; in experiment [2], 20.5 µM; in [3] it was 0.375 µM; in experiment [4] it was 0.3 µM; in experiment [5] it was 26.3 µM; in [6], 26.4 µM. Further, the GI50 in [7] was > 100 µM; in experiment [8], > 100 µM; in [9], 10.7 µM; in experiment [10], > 100 µM. In addition, the TGI in experiment [1] was > 100 µM; in experiment [2], > 71 µM; in experiment [3], > 100 µM; in experiment [4], > 100 µM; in experiment [5], > 90.1 µM; in experiment [6], > 91.3 µM. In addition, the TGI in experiment [7] is > 100 µM; in [8] it was > 100 µM; in experiment [9] it was 27.4 µM; in experiment [10], > 100 µM.
As for `Cc1ccccc1NC(=O)c1sc2nc3c(cc2c1N)C(=O)CCC3`, the GI50 in experiment [1] is 1.64 µM; in experiment [2], 5.26 µM; in experiment [3] it was 2.93 µM; in [4], 6.71 µM; in [5] it was 3.54 µM; in [6], 15.8 µM. Further, the GI50 in experiment [7] was 11.3 µM; in experiment [8], 2.13 µM; in [9], 1.33 µM; in experiment [10], 0.331 µM. Further, the TGI in [1], in experiment [2], in experiment [3], in experiment [4], in experiment [5] and in experiment [6] was > 100 µM in each case. Besides, the TGI in experiment [7] was > 100 µM; in experiment [8], 6.69 µM; in [9] it was > 100 µM; in experiment [10], 1.98 µM.
For `N#CC(=S)Nc1ccc(F)cc1`, the TGI in [1], in experiment [2], in experiment [3], in experiment [4], in experiment [5] and in experiment [6] was > 100 µM each time. The TGI in experiment [7], in experiment [8], in experiment [9] and in [10] was > 100 µM throughout.

For the origin of these results see PubChem BioAssay (NCI).
